Test results as given in patent US20070086967A1, “Treatment of psoriasis with rosiglitazone” (priority 2003, published 2007).

Tests used:
Type in all cases: in vivo, humans
[1] = system: moderate to severe plaque psoriasis; experiment: Phase II placebo-controlled clinical study, Lattice System Global Psoriasis Score (LS-GPS); conditions: for Improvement by 2 categories, number of patients / Improvement by 2 categories, percentage of patients / Improvement to clear/almost clear, number of patients / Improvement to clear/almost clear, percentage of patients / Improvement to clear/almost clear/mild, number of patients / Improvement to clear/almost clear/mild, percentage of patients: LS-GPS, 18 weeks
Excerpt: The Lattice System Global Psoriasis Score (LS-GPS) developed by Charles Ellis, M. D. is a physician's global assessment tool that provides an entire body assessment that combines total body surface area (BSA) involvement with average plaque qualities. The resulting LS-GPS is one of eight discrete values ranging from “Clear” to “Very Severe”.
According to the LS-GPS score the definitions are: Clear • 0% Body Surface Area (BSA) and no elevation, erythema or scale. Almost Clear: • 1-3% BSA, mild elevation, erythema or scale; or • 4-9% BSA, mild erythema or mild scale Mild: • 1-3% BSA, moderate or marked elevation, erythema or scale; or • 4-9% BSA, mild elevation or moderate erythema or moderate scale; or • 10-20% BSA, mild erythema or mild/moderate scale Mild to Moderate: • 4-9% BSA, moderate elevation or marked scale; or • 10-20% BSA, moderate erythema; or • 21-29% BSA, mild erythema or mild/moderate scale Moderate: • 4-9% BSA, marked elevation or marked erythema; or • 10-20% BSA, mild elevation; or • 30-50% BSA, mild erythema or mild scale Moderate to Severe: • 10-20% BSA, moderate elevation or marked scale; or • 21-29% mild elevation or moderate erythema; or • 51+% BSA, mild erythema or mild scale Severe: • 10-20% BSA, marked elevation or marked erythema; or • 21-29% BSA, moderate/marked elevation or marked erythema or marked scale; or • 30-50% BSA, mild elevation or moderate erythema or moderate scale Very Severe: • 30-50% BSA, moderate/marked elevation or marked erythema or marked scale; or • 51+% BSA, any elevation or moderate/marked erythema or moderate/marked scale.
(§1) A phase II, multi-center, randomized, double-blind, placebo-controlled study involving 186 subjects compared the safety and efficacy of three doses (2 mg, 4 mg, and 8 mg) of rosiglitazone maleate (RSG) to placebo for eighteen weeks with two weeks follow-up in the treatment of moderate to severe plaque psoriasis. This study was designed to provide an assessment of the risk to benefit profile of three dose levels of RSG in subjects with psoriasis. 186 patients were enrolled and 108 patients completed the study. All patients were in the moderate to very severe category, although of the patients starting the study only 11 were moderate and the rest were severe or very severe.
(§2) Efficacy measurements included the Lattice System Global Psoriasis Score (LS-GPS) and the Psoriasis Area and Severity Index (PASI).
“Observed” refers to data on patients who completed the trial. “LOCF” (last observation carried forward) includes data on patients who withdrew from the trial for some reason and includes their last observation in the data. The percentage is out of the total number of initial participants in the trial.

[2] = system: moderate to severe plaque psoriasis; experiment: Phase II placebo-controlled clinical study, overall efficacy, onset of effect and patient photographs
Protocol: FIGS. 3, 4, 5 and 6: photographs of the back of a patient receiving 2 mg rosiglitazone at baseline and after 12 weeks, 18 weeks and follow-up (week 20).
FIGS. 7, 8 and 9: photographs of the lower leg of a patient receiving 8 mg rosiglitazone at baseline and after 12 weeks and 18 weeks.
as §1, §2

[3] = system: moderate to severe plaque psoriasis; experiment: Phase II placebo-controlled clinical study, Psoriasis Area and Severity Index (PASI)
Protocol: The Psoriasis Area Severity Index (PASI) score was developed by Fredeniksson and Petersson in 1978 ( Frederiksson T and Petersson U. Severe psoriasis-oral therapy with a new retinoid. Dermatologica. 1978;157:238-44). According to our preferred method of determining the PASI score,four main body areas are assessed: the head (h), the upper extremities (u) the trunk (t), and lower extremities (l) corresponding to 10; 20, 30 and 40% of the total body surface area, respectively. The buttocks are counted as part of the legs, the axilla and groin count as part of the trunk and the neck as part of the head. The area of psoriatic involvement of these four main areas (Ah, At, Au, Al) is given a numeric score for the percent involved by psoriasis: 1=1-9%; 2=10-29%; 3=30-49%; 4=50-69%; 5=70-89% and 6=90-100%. In order to evaluate the severity of the psoriatic lesions three target symptoms, erythema (E), thickness/indurabon (I), and desquamation/scaling (D) will be assessed according to a scale of 0-4, where 4 represents the severest possible involvement. In the case of i.e., erythema, 0=No symptoms; 1=slight erythema, 2=moderate erythema; 3=marked erythema, and 4=very marked erythema. The PASI score (0-72) is then calculated, from the following formula: […]
The PASI score varies in steps of 0.1 units from 0.0 to 72.0. Higher PASI scores indicate higher degrees of severity. The last mentioned score represents complete erythema of the severest possible degree, while 0.0 means no psoriatic lesions at all. Generally severe psoriasis is defined by a PASI score of 20 or more.
as §1, §2

subjects with psoriasis = experiment: Phase II placebo-controlled clinical study, safety
Protocol: as §1

[4] = Observed (completers), 2 mg oral daily
[5] = Observed (completers), 4 mg oral daily
[6] = Observed (completers), 8 mg oral daily
[7] = Week 12, 2 mg and 8 mg groups compared to placebo
[8] = 18 weeks of oral, daily treatment, 2, 4, 8 mg

Question: Which “LS-GPS results (FIG. 1, percentage of completed patients clear, almost clear or mild)” value ([1]; 8 mg group at 18 weeks) does the source give for CN(CCOc1ccc(CC2SC(=O)NC2=O)cc1)c1ccccn1 (stereo not drawn) [RSG, 5-[4-[2-(N-methyl-N-(2-pyridyl)amino)ethoxy]benzyl]thiazolidine-2,4-dione] here?
Answer: particularly good

Question: What about the “Improvement by 2 categories, number of patients” value ([1]; LOCF, 2 mg oral daily) of the same molecule?
Answer: 12

Question: And the “Improvement by 2 categories, percentage of patients” value ([1]; LOCF, 2 mg oral daily)?
Answer: 24%

Question: And the “Improvement to clear/almost clear, number of patients” value ([1]; LOCF, 2 mg oral daily)?
Answer: 2

Question: What about the “Improvement to clear/almost clear, percentage of patients” value ([1]; LOCF, 2 mg oral daily) of the same molecule?
Answer: 4%

Question: What about the “Improvement to clear/almost clear/mild, number of patients” value ([1]; LOCF, 2 mg oral daily) of the same molecule?
Answer: 5

Question: What about the “Improvement to clear/almost clear/mild, percentage of patients” value ([1]; LOCF, 2 mg oral daily) of the same molecule?
Answer: 10%

Question: What about the “Improvement by 2 categories, number of patients” value ([1]; LOCF, 4 mg oral daily) of the same molecule?
Answer: 6

Question: What about the “Improvement by 2 categories, percentage of patients” value ([1]; LOCF, 4 mg oral daily) of the same molecule?
Answer: 14%

Question: And the “Improvement to clear/almost clear, number of patients” value ([1]; LOCF, 4 mg oral daily)?
Answer: 1

Question: What about the “Improvement to clear/almost clear, percentage of patients” value ([1]; LOCF, 4 mg oral daily) of the same molecule?
Answer: 2%

Question: What about the “Improvement to clear/almost clear/mild, number of patients” value ([1]; LOCF, 4 mg oral daily) of the same molecule?
Answer: 4

Question: And the “Improvement to clear/almost clear/mild, percentage of patients” value ([1]; LOCF, 4 mg oral daily)?
Answer: 9%

Question: And the “Improvement by 2 categories, number of patients” value ([1]; LOCF, 8 mg oral daily)?
Answer: 11

Question: And the “Improvement by 2 categories, percentage of patients” value ([1]; LOCF, 8 mg oral daily)?
Answer: 25%

Question: And the “Improvement to clear/almost clear, number of patients” value ([1]; LOCF, 8 mg oral daily)?
Answer: 3

Question: What about the “Improvement to clear/almost clear, percentage of patients” value ([1]; LOCF, 8 mg oral daily) of the same molecule?
Answer: 7%

Question: And the “Improvement to clear/almost clear/mild, number of patients” value ([1]; LOCF, 8 mg oral daily)?
Answer: 11

Question: And the “Improvement to clear/almost clear/mild, percentage of patients” value ([1]; LOCF, 8 mg oral daily)?
Answer: 25%

Question: And the “Improvement by 2 categories, number of patients” value [1, 4]?
Answer: 11

Question: And the “Improvement by 2 categories, percentage of patients” value [1, 4]?
Answer: 28%

Question: What about the “Improvement to clear/almost clear, number of patients” value [1, 4] of the same molecule?
Answer: 2

Question: And the “Improvement to clear/almost clear, percentage of patients” value [1, 4]?
Answer: 5%

Question: And the “Improvement to clear/almost clear/mild, number of patients” value [1, 4]?
Answer: 5

Question: What about the “Improvement to clear/almost clear/mild, percentage of patients” value [1, 4] of the same molecule?
Answer: 13%

Question: What about the “Improvement by 2 categories, number of patients” value [1, 5] of the same molecule?
Answer: 4

Question: What about the “Improvement by 2 categories, percentage of patients” value [1, 5] of the same molecule?
Answer: 20%

Question: What about the “Improvement to clear/almost clear, number of patients” value [1, 5] of the same molecule?
Answer: 1

Question: What about the “Improvement to clear/almost clear, percentage of patients” value [1, 5] of the same molecule?
Answer: 5%

Question: What about the “Improvement to clear/almost clear/mild, number of patients” value [1, 5] of the same molecule?
Answer: 2

Question: What about the “Improvement to clear/almost clear/mild, percentage of patients” value [1, 5] of the same molecule?
Answer: 10%

Question: What about the “Improvement by 2 categories, number of patients” value [1, 6] of the same molecule?
Answer: 10

Question: What about the “Improvement by 2 categories, percentage of patients” value [1, 6] of the same molecule?
Answer: 37%

Question: What about the “Improvement to clear/almost clear, number of patients” value [1, 6] of the same molecule?
Answer: 3

Question: What about the “Improvement to clear/almost clear, percentage of patients” value [1, 6] of the same molecule?
Answer: 11%

Question: And the “Improvement to clear/almost clear/mild, number of patients” value [1, 6]?
Answer: 10

Question: What about the “Improvement to clear/almost clear/mild, percentage of patients” value [1, 6] of the same molecule?
Answer: 37%

Question: What about the LS-GPS summary [1, 7] of the same molecule?
Answer: improvements

Question: What about the “subjects who achieved Clear/Almost Clear in the LS-GPS (primary endpoint)” value ([1]; Week 12, in each of the RSG groups (2 mg, 4 mg, 8 mg), none in placebo) of the same molecule?
Answer: one

Question: What about the “distribution of the LS-GPS” value ([1]; Week 18, 2 mg group) of the same molecule?
Answer: statistically significant

Question: And the “other LS-GPS endpoints” value ([1]; Week 18, 8 mg dose)?
Answer: comparable efficacy with the 2 mg dose

Question: What about the “odds for successful treatment (Clear/Almost Clear/Mild LS-GPS) relative to placebo group” value ([1]; Week 18, 8 mg group) of the same molecule?
Answer: ~5 times

Question: And the “proportion of subjects who achieved Clear/Almost Clear/Mild, significance” value ([1]; Week 18, 8 mg group vs placebo)?
Answer: achieved statistical significance

Question: And the “subjects who achieved an improvement of Clear/Almost Clear” value ([1]; Week 18, all RSG groups together, none on placebo)?
Answer: six

Question: What about the “efficacy results versus placebo” value ([2]; 4 mg group, high dropout rate (24/44)) of the same molecule?
Answer: did not separate appreciably from placebo

Question: And the clinical effects ([2]; Week 12 and Week 18, 2 mg and 8 mg treatment groups)?
Answer: Clinically meaningful effects

Question: And the “efficacy in photographs of a patient's back (FIGS. 3-6)” value ([2]; one patient on 2 mg, baseline, 12 weeks, 18 weeks, follow-up week 20)?
Answer: good efficacy

Question: What about the “efficacy in photographs of a patient's lower leg (FIGS. 7-9)” value ([2]; one patient on 8 mg, baseline, 12 weeks, 18 weeks) of the same molecule?
Answer: good efficacy

Question: What about the “onset of action according to most measures” value ([2]; oral, 2 to 8 mg/day) of the same molecule?
Answer: around 2 weeks

Question: And the onset of activity ([2]; oral, 2 to 8 mg/day)?
Answer: 6-8 weeks

Question: What about the “time to noticeably beneficial effects” value ([2]; oral, 2 to 8 mg/day) of the same molecule?
Answer: 12-18 weeks

Question: What about the “time of peak effect (other endpoints)” value ([2]; study only 18 weeks, peak efficacy may not have been observed) of the same molecule?
Answer: 18 weeks

Question: And the “PASI results (FIG. 2, change from baseline, LOCF)” value ([3]; 2 and 8 mg group at 12 weeks)?
Answer: particularly good

Question: What about the “mean percent change in PASI” value ([3]; Week 12, 2 mg and 8 mg group) of the same molecule?
Answer: statistically significant

Question: And the “proportion of subjects who achieved a 50% improvement according the PASI” value [3, 7]?
Answer: improvements

Question: What about the “proportion of subjects who achieved a 75% improvement according the PASI” value [3, 7] of the same molecule?
Answer: improvements

Question: What about the “PASI mean percent change” value ([3]; Week 18, 2 mg group) of the same molecule?
Answer: statistically significant

Question: And the “other PASI endpoints” value ([3]; Week 18, 8 mg dose)?
Answer: comparable efficacy with the 2 mg dose

Question: What about the “improvements in mean percent change in PASI total scores during follow-up period” value ([3]; two weeks follow-up after 18 weeks of treatment, all treatment groups) of the same molecule?
Answer: maintained

Question: And the safety findings (subjects with psoriasis; [8])?
Answer: no unexpected safety findings

Question: What about the safety profile (subjects with psoriasis; [8]) of the same molecule?
Answer: comparable across treatment groups

Question: And the adverse events (subjects with psoriasis; all doses)?
Answer: comparable with placebo

Question: What about the tolerability (subjects with psoriasis; all doses) of the same molecule?
Answer: well tolerated
